Test results from US6512000B1, “Aminocarbonyl-substituted benzimidazoles having tryptase-inhibitory activity” (Boehringer Ingelheim Pharma KG, priority 1999, dated 2003).
pIC50: −log10 of the molar value. Structures can show the parent of a compound that is named as a salt.

Target: T1, rh beta tryptase (Homo sapiens, UniProt P20231)
T1 construct: purchased Promega
Assay: Tryptase inhibition test (cleavage of N-p-tosyl-Gly-Pro-Lys-para-nitroaniline, p-nitroaniline measured at 405 nm)
Assay type: biochemical
Settings: pH 7.4, 37° C.; for % Inhibition (10 μM): inhibition of rh beta tryptase at 10 μM test substance, substrate N-p-tosyl-Gly-Pro-Lys-para-nitroaniline 0.6 mM, 5 minutes; for pIC50: concentration at which 50% of the tryptase enzyme activity is inhibited, substrate 0.6 mM
Procedure: The compounds according to the invention are characterised by their tryptase-inhibiting activity. This ability to inhibit tryptase was investigated using the test described below.
The measurement is carried out in Tris HCl buffer (100 mM), which additionally contains calcium (5 mM) and heparin ([…]), at pH 7.4. The standard used is rh beta tryptase which may be obtained commercially from Promega, for example. The substrate used is N-p-tosyl-Gly-Pro-Lys-para-nitroaniline in a concentration of 0.6 mM. The substrate is digested with tryptase to form p-nitroaniline which can be measured at 405 nm. Usually, an incubation period of 5 minutes and an incubation temperature of 37° C. are chosen. The enzyme activity used is 0.91 U/ml. The measurements are carried out in an Autoanalyser (Cobas Bio) made by Hofmann LaRoche. The potential inhibitory substances are used in concentrations of 10 μM in the screening, the inhibition of the tryptase being given in percent. The IC50 is determined at over 70% inhibition (concentration at which 50% of the enzyme activity is inhibited). After 5 minutes' pre-incubation of the potential inhibitory substances, the substrate is added to start the reaction, the formation of p-nitroaniline being taken as a measurement of the enzyme activity after 5 minutes, after testing the linearity.
The data obtained after the above test has been carried out (% inhibition) are assembled in Table 25 for the compounds according to the invention. The IC50 values obtained for the compounds according to the invention can be found in Table 26.
Table 26 contains the IC50 binding values obtained for the compounds according to the invention. These were measured as described above.

T1 sequence (P20231 31-275): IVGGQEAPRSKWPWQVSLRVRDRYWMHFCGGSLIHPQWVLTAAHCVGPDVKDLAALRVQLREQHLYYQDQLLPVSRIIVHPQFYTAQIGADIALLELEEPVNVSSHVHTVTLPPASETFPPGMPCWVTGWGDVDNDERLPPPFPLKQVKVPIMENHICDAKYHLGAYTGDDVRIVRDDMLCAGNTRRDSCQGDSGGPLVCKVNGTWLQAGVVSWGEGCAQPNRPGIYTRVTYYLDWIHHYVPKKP

% Inhibition (10 μM) [%]	pIC50	Compound
63		2-[2-(4-amidinophenyl)ethyl]-1-[2-(4-chlorophenyl)ethyl]-benzimidazol-5-yl-carboxylic acid-N-[4-(amino-methyl)-benzyl]-N-(3-pyridyl)-amide [Example 140]
55		2-[2-(4-amidinophenyl)ethyl]-1-[3-(benzylcarbonylamino)-propyl]-benzimidazol-5-yl-carboxylic acid-N-(2-aminoethyl)-N-(2-pyridyl)-amide [Example 312]
74		2-[2-(4-amidinophenyl)ethyl]-1-[3-(benzylcarbonylamino)-propyl]-benzimidazol-5-yl-carboxylic acid-N-[4-(amino-methyl)-benzyl]-N-(2-pyridyl)-amide [Example 120]
74		2-[2-(4-amidinophenyl)ethyl]-1-[3-(benzylcarbonylamino)-propyl]-benzimidazol-5-yl-carboxylic acid-N-[4-(amino-methyl)-benzyl]-N-(3-pyridyl)-amide [Example 136]
58		2-[2-(4-amidinophenyl)ethyl]-1-[3-(morpholin-4-yl)-propyl]-benzimidazol-5-yl-carboxylic acid-N-[4-(amino-methyl)-benzyl]-N-(2-fluorobenzyl)-amide [Example 225]
63		2-[2-(4-amidinophenyl)ethyl]-1-[3-(morpholin-4-yl)-propyl]-benzimidazol-5-yl-carboxylic acid-N-[4-(amino-methyl)-benzyl]-N-(2-pyridyl)-amide [Example 129]
73		2-[2-(4-amidinophenyl)ethyl]-1-[3-(morpholin-4-yl)-propyl]-benzimidazol-5-yl-carboxylic acid-N-[4-(amino-methyl)-benzyl]-N-(3-pyridyl)-amide [Example 145]
61	6.11	2-[2-(4-amidinophenyl)ethyl]-1-cyclopropylmethyl-benzimidazol-5-yl-carboxylic acid-N-(2-aminoethyl)-N-(2-pyridyl)-amide [Example 314]
54	6.30	2-[2-(4-amidinophenyl)ethyl]-1-cyclopropylmethyl-benzimidazol-5-yl-carboxylic acid-N-(2-aminoethyl)-N-(3-pyridyl)-amide [Example 330]
70	6.29	2-[2-(4-amidinophenyl)ethyl]-1-cyclopropylmethyl-benzimidazol-5-yl-carboxylic acid-N-[4-(amino-methyl)-benzyl]-N-(2-pyridyl)-amide [Example 122]
72	6.37	2-[2-(4-amidinophenyl)ethyl]-1-cyclopropylmethyl-benzimidazol-5-yl-carboxylic acid-N-[4-(amino-methyl)-benzyl]-N-(3-pyridyl)-amide [Example 138]
51		2-[2-(4-amidinophenyl)ethyl]-1-{3-[4-(2-methylphenyl)-piperazin-1-yl]-propyl}-benzimidazol-5-yl-carboxylic acid-N-[4-(amino-methyl)-benzyl]-N-(2-pyridyl)-amide [Example 128]
54		2-[2-(4-amidinophenyl)ethyl]-1-{3-[4-(2-methylphenyl)-piperazin-1-yl]-propyl}-benzimidazol-5-yl-carboxylic acid-N-[4-(amino-methyl)-benzyl]-N-(3-pyridyl)-amide [Example 144]
	6.05	CN(Cc1cccnc1)C(=O)c1ccc2c(c1)nc(CCc1ccc(C(=N)N)cc1)n2C [Example 1, 2-[2-(4-Amidinophenyl)ethyl]-1-methyl-benzimidazol-5-yl-carboxylic Acid-N-(pyridin-3-yl-methyl)-N-methyl-amide-hydrochloride]
	6.18	CN(C)CCN(C)C(=O)c1ccc2c(c1)nc(CCc1ccc(C(=N)N)cc1)n2C [Example 3, 2-[2-(4-Amidinophenyl)-ethyl]1l-methyl-benzimidazol-5-yl-carboxylic Acid-N-[2-(N,N-dimethylamino)-ethyl]-N-methyl-amide-dihydrochlonide]
	7.09	CN(Cc1ccc(C(=N)N)cc1)C(=O)c1ccc2c(c1)nc(CCc1ccc(C(=N)N)cc1)n2C [Example 4, 2-[2-(4-Amidinophenyl)-ethyl]-1-methyl-benzimidazol-5-yl-carboxylic Acid-N-(4-amidino-benzyl)-N-methyl-amide-trihydrochloride]
	6.61	CCOC(=O)CN(Cc1ccc(C(=N)N)cc1)C(=O)c1ccc2c(c1)nc(CCc1ccc(C(=N)N)cc1)n2C [Example 5, 2-[2-(4-Amidinophenyl)-ethyl]-1-methyl-benzimidazol-5-yl-carboxylic Acid-N-(4-amidino-benzyl)-N-ethoxycarbonylmethyl-amide-dihydrochloride]
	6.24	CN(Cc1ccc(N(C)C)cc1)C(=O)c1ccc2c(c1)nc(CCc1ccc(C(=N)N)cc1)n2C [Example 6, 2-[2-(4-Amidinophenyl)-ethyl]-1-methyl-benzimidazol-5-yl-carboxylic Acid-N-(4-dimethylaminobenzyl)-N-methyl-amide-hydrochloride]
	6.17	CN(CCC(=N)N)C(=O)c1ccc2c(c1)nc(CCc1ccc(C(=N)N)cc1)n2C [Example 7, 2-[2-(4-Amidinophenyl)-ethyl]-1-methyl-benzimidazol-5-yl-carboxylic Acid-N-(2-amidinoethyl)-N-methyl-amide-dihydrochloride]
	6.70	Cn1c(CCc2ccc(C(=N)N)cc2)nc2cc(C(=O)N(CCC(=N)N)Cc3cnc4ccccc4c3)ccc21 [Example 8, 2-[2-(4-Amidinophenyl)-ethyl]-1-methyl-benzimidazol-5-yl-carboxylic Acid-N-(2-amidinoethyl)-N-(quinolin-3-yl-methyl)-amide-dihydrochloride]
	6.85	Cn1c(CCc2ccc(C(=N)N)cc2)nc2cc(C(=O)N(CCC(=N)N)Cc3ccccc3)ccc21 [Example 9, 2-[2-(4-Amidinophenyl)-ethyl]-1-methyl-benzimidazol-5-yl-carboxylic Acid-N-(2-amidinoethyl)-N-benzyl-amide-dihydrochloride]
	6.50	Cn1c(CCc2ccc(C(=N)N)cc2)nc2cc(C(=O)N(CCC(=N)N)Cc3cccnc3)ccc21 [Example 10, 2-[2-(4-Amidinophenyl)-ethyl]-1-methyl-benzimidazol-5-yl-carboxylic Acid-N-(2-amidinoethyl)-N-(3-pyridylmethyl)-amide-dihydrochloride]
	7.07	CC(C)CN(CCC(=N)N)C(=O)c1ccc2c(c1)nc(CCc1ccc(C(=N)N)cc1)n2C [Example 11, 2-[2-(4-Amidinophenyl)-ethyl]-1-methyl-benzimidazol-5-yl-carboxylic Acid-N-(2-amidinoethyl)-N-iso-butyl-amide-dihydrochloride]
	6.32	Cn1c(CCc2ccc(C(=N)N)cc2)nc2cc(C(=O)NCCCc3ccccc3)ccc21 [Example 12, 2-[2-(4-Amidinophenyl)-ethyl]-1-methyl-benzimidazol-5-yl-carboxylic Acid-N-(3-phenylpropyl)-amide-hydrochloride]
	7.01	Cc1ccccc1N1CCCN(C(=O)c2ccc3c(c2)nc(CCc2ccc(C(=N)N)cc2)n3C)CC1 [Example 15, 2-[2-(4-Amidinophenyl)-ethyl]-1-methyl-benzimidazol-5-yl-carboxylic Acid-[N′-(2-methyl-phenyl)-diazepide]-hydrochloride]
	6.81	Cn1c(CCc2ccc(C(=N)N)cc2)nc2cc(C(=O)N(CCCc3ccccc3)Cc3ccc(C(=N)N)cc3)ccc21 [Example 16, 2-[2-(4-Amidinophenyl)-ethyl]-1-methyl-benzimidazol-5-yl-carboxylic Acid-N-(4-amidinobenzyl)-N-(3-phenylpropyl)-amide-dihydrochloride]
	6.97	Cn1c(CCc2ccc(C(=N)N)cc2)nc2cc(C(=O)N(CCC(c3ccccc3)c3ccccc3)Cc3ccc(C(=N)N)cc3)ccc21 [Example 17, 2-[2-(4-Amidinophenyl)-ethyl]-1-methyl-benzimidazol-5-yl-carboxylic Acid-N-(4-amidinobenzyl)-N-(3,3-diphenylpropyl)-amide-dihydrochloride]
	6.51	CN(C(=O)c1ccc2c(c1)nc(CCc1ccc(C(=N)N)cc1)n2C)c1cccnc1 [Example 18, 2-[2-(4-Amidinophenyl)-ethyl]-1-methyl-benzimidazol-5-yl-carboxylic Acid-N-methyl-N-(3-pyridyl)-amide-hydrochloride]
	7.49	Cn1c(CCc2ccc(C(=N)N)cc2)nc2cc(C(=O)N(CCN(Cc3ccccc3)Cc3ccccc3)c3ccccc3)ccc21 [Example 19]
	6.51	Cn1c(CCc2ccc(C(=N)N)cc2)nc2cc(C(=O)N(CCC(=N)N)c3ccc4ccccc4c3)ccc21 [Example 20, 2-[2-(4-Amidinophenyl)-ethyl]-1-methyl-benzimidazol-5-yl-carboxylic Acid-N-(2-amidinoethyl)-N-(2-naphthyl)-amide-dihydrochloride]
